Laboratory results published in ChEMBL document CHEMBL5523718, “Design, synthesis, molecular modeling, in vitro and in vivo biological evaluation of potent anthranilamide derivatives as dual P-glycoprotein and CYP3A4 inhibitors” (Eur J Med Chem, 2024).
pEC50, pIC50: −log10 of the molar value. Converted amounts (≈) assume the structure as drawn. “And” between values parts separate entries of the source, which are not always exact repeats. Equal values may be shown once.

Assays:
[1] = target: ATP-dependent translocase ABCB1 (Homo sapiens, UniProt P08183); assay: Inhibition of P-gp in human MES-SA/Dx5 cells; type: cell-based
Sequence of ATP-dependent translocase ABCB1 (P08183 whole entry): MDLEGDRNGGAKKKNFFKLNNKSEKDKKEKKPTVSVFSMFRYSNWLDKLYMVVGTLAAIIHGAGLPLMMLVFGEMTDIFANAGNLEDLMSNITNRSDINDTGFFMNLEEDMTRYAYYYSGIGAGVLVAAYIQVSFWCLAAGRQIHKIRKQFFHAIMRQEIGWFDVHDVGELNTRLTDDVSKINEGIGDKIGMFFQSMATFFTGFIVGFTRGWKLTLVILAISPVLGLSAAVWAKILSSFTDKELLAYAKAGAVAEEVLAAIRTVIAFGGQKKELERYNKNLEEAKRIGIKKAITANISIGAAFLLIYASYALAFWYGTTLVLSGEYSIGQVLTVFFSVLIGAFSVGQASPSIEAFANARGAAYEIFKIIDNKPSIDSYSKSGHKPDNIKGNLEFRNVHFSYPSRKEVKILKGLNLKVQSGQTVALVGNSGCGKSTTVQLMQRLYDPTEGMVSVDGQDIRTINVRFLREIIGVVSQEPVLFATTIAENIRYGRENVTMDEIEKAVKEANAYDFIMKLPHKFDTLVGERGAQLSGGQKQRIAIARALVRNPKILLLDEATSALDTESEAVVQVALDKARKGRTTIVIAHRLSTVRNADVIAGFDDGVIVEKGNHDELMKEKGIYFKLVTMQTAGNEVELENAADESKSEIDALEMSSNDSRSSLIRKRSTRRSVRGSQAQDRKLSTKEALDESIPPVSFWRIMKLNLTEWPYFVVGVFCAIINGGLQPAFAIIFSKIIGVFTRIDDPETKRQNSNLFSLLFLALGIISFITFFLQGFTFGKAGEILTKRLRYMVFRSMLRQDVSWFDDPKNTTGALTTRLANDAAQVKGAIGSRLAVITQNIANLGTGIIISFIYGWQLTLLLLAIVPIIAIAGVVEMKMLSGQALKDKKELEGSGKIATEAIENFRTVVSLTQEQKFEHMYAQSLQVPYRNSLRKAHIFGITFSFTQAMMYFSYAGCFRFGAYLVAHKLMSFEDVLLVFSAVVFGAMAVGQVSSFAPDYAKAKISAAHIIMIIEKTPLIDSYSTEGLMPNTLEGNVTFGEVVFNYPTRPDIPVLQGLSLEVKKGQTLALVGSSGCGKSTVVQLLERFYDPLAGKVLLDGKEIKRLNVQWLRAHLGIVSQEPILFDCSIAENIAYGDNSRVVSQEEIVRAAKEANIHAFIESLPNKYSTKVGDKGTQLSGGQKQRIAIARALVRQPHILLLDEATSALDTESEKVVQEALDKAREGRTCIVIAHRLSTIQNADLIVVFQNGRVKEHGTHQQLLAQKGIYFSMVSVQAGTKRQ

[2] = target: T1, Cytochrome P450 3A4 (Homo sapiens, UniProt P08684); assay: Inhibition of CYP3A4 in human liver using luciferin-IPA as substrate microsome preincubated with compound for 10 mins followed by NADPH addition and measured after 5 mins; type: ADME, microsomes
T1 sequence (P08684 whole entry): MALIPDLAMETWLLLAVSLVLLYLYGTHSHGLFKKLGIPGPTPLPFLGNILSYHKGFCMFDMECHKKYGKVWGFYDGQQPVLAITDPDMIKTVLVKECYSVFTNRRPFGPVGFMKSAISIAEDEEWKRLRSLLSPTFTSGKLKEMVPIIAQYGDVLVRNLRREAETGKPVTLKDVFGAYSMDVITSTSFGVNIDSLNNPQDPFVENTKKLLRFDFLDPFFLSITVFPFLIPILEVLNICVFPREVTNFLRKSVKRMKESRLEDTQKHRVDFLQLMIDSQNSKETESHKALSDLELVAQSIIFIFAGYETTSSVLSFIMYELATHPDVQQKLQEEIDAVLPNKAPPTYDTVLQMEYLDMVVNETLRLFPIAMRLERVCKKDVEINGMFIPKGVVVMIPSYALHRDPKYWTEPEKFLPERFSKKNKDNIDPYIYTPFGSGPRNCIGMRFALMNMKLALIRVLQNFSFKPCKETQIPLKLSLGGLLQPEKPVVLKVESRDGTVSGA

[3] = system: MES-SA/Dx5; assay: Cytotoxicity against human MES-SA/Dx5 cells at 1.28 uM incubated for 3 days by MTT assay relative to control; type: functional; conditions: time 3 day
[4] = target: T1, Cytochrome P450 3A4; assay: Inhibition of CYP3A4 in human Hepatocyte using Luciferin-IPA as substrate; type: ADME, cell-based
[5] = Apparent permeability of compound across apical to basolateral side in human Caco-2 cells; type: ADME, cell-based
[6] = Apparent permeability across basolateral to apical side in human Caco-2 cells assessed as drug recovery; type: ADME, cell-based; conditions: read-out: Drug recovery
[7] = Efflux ratio of apparent permeability across basolateral to apical side over apical to basolateral side in human Caco-2 cells; type: ADME, cell-based
[8] = Apparent permeability across apical to basolateral side in human Caco-2 cells assessed as drug recovery; type: ADME, cell-based; conditions: read-out: Drug recovery
[9] = Equilibrium solubility of compound in PBS at pH 7.4; type: physicochemical; conditions: for solubility: buffer
[10] = Apparent permeability of compound across basolateral to apical side in human Caco-2 cells; type: ADME, cell-based

| Structure (SMILES) | pEC50 [1] | pIC50 [2] | pIC50 [4] | Activity [3] | further results |
| --- | --- | --- | --- | --- | --- |
| COc1cc(NC(=O)c2cc(=O)c3ccccc3o2)c(C(=O)Nc2ccc(C3CCN(Cc4cccc(-n5cncn5)c4)CC3)cc2)cc1OC | 6.66 | 6.53 | 5.87 | 0% | – |
| COc1cc(NC(=O)c2cc(=O)c3ccccc3o2)c(C(=O)Nc2ccc(N3CCN(Cc4cccc(-c5ccncc5)c4)CC3)cc2)cc1OC | 6.92 | 6.35 | 5.79 | 0% | – |
| COc1cc(NC(=O)c2cc(=O)c3ccccc3o2)c(C(=O)Nc2ccc(C3CCN(Cc4cccc(-c5cccnc5)c4)CC3)cc2)cc1OC | 7.19 and 6.63 | 6.64 and 6.59 | 5.93 and 6.31 | 0% | – |
| COc1cc(NC(=O)c2cnc3ccccc3c2)c(C(=O)Nc2ccc(N3CCN(Cc4cccc(-c5cccnc5)c4)CC3)cc2)cc1OC | 7.26 | 6.55 | 5.96 | 0% | Papp A→B [5]: 1.29 ×10⁻⁶ cm/s; recovery [6]: 60%; efflux ratio [7]: 1.8; recovery [8]: 51%; solubility [9]: Not Determined(Insoluble); Papp B→A [10]: 2.36 ×10⁻⁶ cm/s |
| COc1cc(NC(=O)c2cnc3ccccc3c2)c(C(=O)Nc2ccc(C3CCN(Cc4cccc(-c5cccnc5)c4)CC3)cc2)cc1OC | 6.97 | 6.61 | 6.01 | 0% | – |
| COc1cc(NC(=O)c2cnc3ccccc3c2)c(C(=O)Nc2ccc(C3CCN(Cc4cccc(-c5ccncc5)c4)CC3)cc2)cc1OC | 6.73 | 5.95 | 5.49 | 3% | – |
| COc1cc(NC(=O)c2cnc3ccccc3c2)c(C(=O)Nc2ccc(N3CCN(Cc4cccc(-n5cncn5)c4)CC3)cc2)cc1OC | 6.45 | 6.61 | 6.26 | 1% | – |
| COc1cc(NC(=O)c2cnc3ccccc3c2)c(C(=O)Nc2ccc(N3CCN(Cc4cccc(-c5ccncc5)c4)CC3)cc2)cc1OC | 7.01 | 6.27 | 5.75 | 2% | – |
| COc1cc(NC(=O)c2cnc3ccccc3c2)c(C(=O)Nc2ccc(C3CCN(Cc4cccc(-n5cncn5)c4)CC3)cc2)cc1OC | 6.81 | 6.18 | 5.76 | 1% | – |
| COc1ccc(CN2CCN(c3ccc(NC(=O)c4ccccc4NC(=O)c4cc(=O)c5ccccc5o4)cc3)CC2)cc1OC | 6.37 | < 5.05 | – | 0% | – |
| O=C(Nc1ccccc1C(=O)Nc1ccc(N2CCN(Cc3cccc(-c4cccnc4)c3)CC2)cc1)c1cc(=O)c2ccccc2o1 | 6.29 | 6.40 | 5.73 | 2% | – |
| COc1cc(NC(=O)c2cc(=O)c3ccccc3o2)c(C(=O)Nc2ccc(C3CCN(Cc4cccc(-c5ccncc5)c4)CC3)cc2)cc1OC | 6.78 and 6.67 | 6.82 and 6.67 | 5.90 and 5.94 | 1% | – |
| COc1cc(NC(=O)c2cc(=O)c3ccccc3o2)c(C(=O)Nc2ccc(N3CCN(Cc4cccc(-n5cncn5)c4)CC3)cc2)cc1OC | 6.48 | 6.43 | 6.32 | 1% | – |
| C[C@H]1O[C@@H](O[C@H]2[C@@H](O)C[C@H](O[C@H]3[C@@H](O)C[C@H](O[C@H]4CC[C@@]5(C)[C@H](CC[C@@H]6[C@@H]5C[C@@H](O)[C@]5(C)[C@@H](C7=CC(=O)OC7)CC[C@]65O)C4)O[C@@H]3C)O[C@@H]2C)C[C@H](O)[C@@H]1O [DIGOXIN] | – | – | – | – | Papp A→B [5]: 0.98 ×10⁻⁶ cm/s; recovery [6]: 68%; efflux ratio [7]: 12.2; recovery [8]: 56%; Papp B→A [10]: 12.1 ×10⁻⁶ cm/s |
| CC(=O)N1CCN(c2ccc(OCC3COC(Cn4ccnc4)(c4ccc(Cl)cc4Cl)O3)cc2)CC1 (centres undefined) [KETOCONAZOLE] | – | – | – | 39% | – |

The next lines start with results.

| pEC50 [1] | pIC50 [2] | pIC50 [4] | Structure (SMILES) | Activity [3] | further results |
| --- | --- | --- | --- | --- | --- |
| 7.54 | < 5.05 | – | COc1ccc(CN2CCN(c3ccc(NC(=O)c4cc(OC)c(OC)cc4NC(=O)c4cnc5ccccc5c4)cc3)CC2)cc1OC | 1% | – |
| 7.41 | 6.79 | 5.62 | COc1cc(NC(=O)c2cc(=O)c3ccccc3o2)c(C(=O)Nc2ccc(N3CCN(Cc4cccc(-n5ccnc5)c4)CC3)cc2)cc1OC | 0% | – |
| 7.72 | 5.73 | 5.21 | COc1cc(NC(=O)c2cnc3ccccc3c2)c(C(=O)Nc2ccc(N3CCN(Cc4ccc5c(cnn5C)c4)CC3)cc2)cc1OC | 6% | – |
| 7.59 | 5.42 | 5.05 | COc1cc(NC(=O)c2cnc3ccccc3c2)c(C(=O)Nc2ccc(C3CCN(Cc4ccc5c(cnn5C)c4)CC3)cc2)cc1OC | 3% | – |
| 7.29 | 5.90 | 5.19 | COc1cc(NC(=O)c2cc(=O)c3ccccc3o2)c(C(=O)Nc2ccc(C3CCN(Cc4ccc5c(c4)OCO5)CC3)cc2)cc1OC | 1% | – |
| 7.37 | < 5.05 | – | COc1ccc(CN2CCC(c3ccc(NC(=O)c4cc(OC)c(OC)cc4NC(=O)c4cnc5ccccc5c4)cc3)CC2)cc1OC | 3% | – |
| 7.40 | < 5.05 | – | COc1ccc(CN2CCC(c3ccc(NC(=O)c4cc(OC)c(OC)cc4NC(=O)c4cc(=O)c5ccccc5o4)cc3)CC2)cc1OC | 0% | – |
| 7.48 | 6.57 | 5.72 | COc1cc(NC(=O)c2cnc3ccccc3c2)c(C(=O)Nc2ccc(N3CCN(Cc4cccc(-n5ccnc5)c4)CC3)cc2)cc1OC | 0% | Papp A→B [5]: 0.17 ×10⁻⁶ cm/s; recovery [6]: 74%; efflux ratio [7]: 1.6; recovery [8]: 69%; solubility thermodynamic ([9]; PBS): 0.092 µM (≈ 0.0614 µg/mL); Papp B→A [10]: 0.27 ×10⁻⁶ cm/s |
| 7.68 | < 5.05 | – | COc1ccc(CN2CCN(c3ccc(NC(=O)c4cc(OC)c(OC)cc4NC(=O)c4cc(=O)c5ccccc5o4)cc3)CC2)cc1OC | 5% | – |
| 7.85 | 5.98 | 5.09 | COc1cc(NC(=O)c2cc(=O)c3ccccc3o2)c(C(=O)Nc2ccc(N3CCN(Cc4ccc5c(cnn5C)c4)CC3)cc2)cc1OC | 2% | – |
| 7.52 | 5.93 | 5.22 | COc1cc(NC(=O)c2cc(=O)c3ccccc3o2)c(C(=O)Nc2ccc(C3CCN(Cc4ccc5c(cnn5C)c4)CC3)cc2)cc1OC | 1% | – |
| 7.66 | 5.68 | 5.26 | COc1cc(NC(=O)c2cnc3ccccc3c2)c(C(=O)Nc2ccc(N3CCN(Cc4ccc5c(c4)OCO5)CC3)cc2)cc1OC | 3% | recovery [6]: 75%; Ratio [7]: 14; recovery [8]: 75%; Papp [10]: 31.7 10^-6 cm/s |
| 7.37 | 6.47 | 6.22 | COc1cc(NC(=O)c2cc(=O)c3ccccc3o2)c(C(=O)Nc2ccc(N3CCN(Cc4cccc(-c5cccnc5)c4)CC3)cc2)cc1OC | 0% | Papp A→B [5]: 0.06 ×10⁻⁶ cm/s; recovery [6]: 86%; recovery [8]: 62%; solubility [9]: Not Determined(Insoluble); Papp B→A [10]: < 0.08 ×10⁻⁶ cm/s |
| 7.41 | 5.49 | 5.05 | COc1cc(NC(=O)c2cnc3ccccc3c2)c(C(=O)Nc2ccc(C3CCN(Cc4ccc5c(c4)OCO5)CC3)cc2)cc1OC | 1% | – |
| 7.51 | 5.79 | 5.33 | COc1cc(NC(=O)c2cc(=O)c3ccccc3o2)c(C(=O)Nc2ccc(N3CCN(Cc4ccc5c(c4)OCO5)CC3)cc2)cc1OC | 4% | – |
